The test system of experiment [1] is Swiss albino mice (tail immersion model). Nature of the experiment: Tail immersion model, analgesic potential in experimental mice. Format: in vivo. The conditions noted are these: for Tail immersion latency reaction time: water 55° C., cut off 15 second, Mean ± SEM, n=6; for Percentage maximum possible effect: [(Post drug latency-Pre drug latency)/(15-Pre drug latency)]×100. How it is done:
Animal Study—Evaluation of analgesic potential of the test substances against tail immersion model in experimental mice.
Male Swiss albino mice weighing between 30-35 g were used. Mice were placed into individual cylindrical mice holders leaving the tail hanging out freely. The animals were allowed to get acclimatized to mice holders for 30 min before testing. The lower 5 cm portion of the tail was marked. This part of the tail was immersed in a cup of freshly filled water at 55° C. The reaction time was recorded using a stop-watch. After each determination the tail was carefully dried. The reaction time was determined before and periodically 0 min, 30 min, 60 min, 90 min, 120 min, 180 min and 240 min after the oral administration of test substance. The cut off time of immersion was 15 second. The percentage maximum possible effect (% MPE) was calculated using the following formula: [(Post drug latency-Pre drug latency)/(15-Pre drug latency)]×100.
The values were expressed in Mean±SEM. The significance of in vivo data was analyzed by One way anova followed by Dunnet test. P<0.05 was considered as statistically significant.

Another experiment deals with eNOS gene. The experiment in a line: eNOS gene expression by semi-quantitative RT-PCR in H9C2 cells. Format: cell-based, rat. The conditions noted are these: for Regulation in Terms of Folds, eNOS (normalized to β-Actin): control = 1.00. How it is done: The test substances were evaluated for its gene expression activity in H9C2 (rat cardiomyocytes), the concentration of test substances (G2, G3 and G4,) is 500 μg/ml were taken for gene expression studies. […] [Hunter C. Champion, et al., PNAS, 2005; 102:5:1661-1666.]
eNOS were estimated for the test substance by gene expression method, where the level of expression of eNOS expression on […] Cardiomyocytes (H9C2) was determined with respect to untreated H9C2 cells.
The H9C2 cells treated with test samples were subjected to cell lysis by treating with Tri-extract reagent. Chloroform was added, to isolate the total RNA from the sample and subjected for centrifugation. Out of the three distinct layers observed, upper layer was collected in fresh tube and equal volume of isopropanol was added and incubated at […] for 10 mins. After the incubation followed by centrifugation, appropriate volume of ethanol was added to resuspend the pellet. After incubation and centrifugation, the pellet was air dried and appropriate volume of TAE buffer was added. The isolated total RNA was further used for cDNA synthesis. cDNA was synthesized by priming with oligo-dT primers followed by reverse transcriptase enzyme treatment according to manufacturer's protocol (Thermoscientific). The cDNA thus synthesized was taken up for PCR for the amplification of eNOS and GAPDH (internal control).
The mRNA expression levels of eNOS were determined using semi-quantitative reverse transcriptase-polymerase chain reaction (RT-PCR). 50p of the reaction mixture was subjected to PCR for amplification of eNOS. cDNAs using specifically designed primers procured from Eurofins, India and as an internal control GAPDH/3-Actin (House-keeping genes) was co-amplified with each reaction.
eNOS: 95° C. for 5 min followed by 35 cycles of denaturation at 95° C. for 30 seconds, annealing Temp for 30 seconds and extension at 72° C. for 45 seconds. This was followed by final extension at 72° C. for 10 min.

Here are results for 2 compounds from patent publication US10653737B1, “Synergistic nutritional compositions for pain management” (Celagenex Research (India) Pvt. Ltd., priority 2019, dated 2020).

As to `CCCCCCCCCCCCCCCC(=O)NCCO` [Composition P3A, palmitoylethanolamide], the “Tail immersion latency reaction time” value in experiment [1] (0 Min, oral) came out at 2.50 s; in experiment [1] (30 Min after oral administration) it was 5.17 s; in experiment [1] (60 Min after oral administration), 5.83 s; in experiment [1] (90 Min after oral administration), 6.50 s; in experiment [1] (120 Min after oral administration), 7.50 s; in experiment [1] (180 Min after oral administration), 8.33 s. In addition, the “Tail immersion latency reaction time” value in experiment [1] (240 Min after oral administration) turned out to be 7.50 s. For the same compound, the “Percentage maximum possible effect” value came out at 21.33% in experiment [1] (30 Min); 26.67% in experiment [1] (60 Min); 32.00% in experiment [1] (90 Min); 40.00% in experiment [1] (120 Min); 46.67% in experiment [1] (180 Min); 40.00% in experiment [1] (240 Min). For the same compound, the “Percentage maximum possible effect compared with Pain control group (in words)” value in experiment [1] (different intervals of time) is on record as “significant increased”. In experiment [1] (different time intervals, One way anova, Dunnet test, P<0.05), the “Tail immersion latency reaction time compared with Pain control group (in words)” value was “significant increased”. Also, the “eNOS expression over expressed as compared to the control” value in the experiment with eNOS gene (at tested doses (500 μg/ml), increase over control) is on record as 0.25 folds. Further, the “Regulation in Terms of Folds, eNOS (normalized to β-Actin)” value with eNOS gene (test substance 500 μg/ml) turned out to be 1.25 fold.

For the compound `CC(C)C[C@H](CN)CC(=O)O` [Pregabalin (LYRICA ®) 75 mg, Pregabalin, reference compound], in experiment [1] (mouse, in vivo), the “Percentage maximum possible effect compared with Pain control group (in words)” value was “significant increased” and the “Tail immersion latency reaction time compared with Pain control group (in words)” value is recorded as “significant increased”. For the same compound, in the experiment on eNOS gene (125 μg/ml), the “Regulation in Terms of Folds, eNOS (normalized to β-Actin)” value turned out to be 1.58 fold. The “eNOS gene expression up-regulated over control” value in the experiment with eNOS gene (standard product (125 μg/ml), increase over control) is listed as 0.58 fold.
